Assay results from US20220056018A1, “SREBP INHIBITORS COMPRISING A THIOPHENE CENTRAL RING” (Capulus Therapeutics, LLC, priority 2019, published 2022).

Assays:
[1] = tested on: SREBP; test: Reporter Screening Assay (SRE-luciferase reporter, HepG2); type: cell-based; conditions: Homo sapiens; SRE-luciferase reporter HepG2 cells, 24 hours, 0.01 uM to 10 uM; read-out: I: Reporter Screening Assay (Ave EC50 (nM))
Description: Reporter Screening Assay: This assay was used to evaluate the effect on transcriptional activity SREBP of selected compounds using an SRE-luciferase reporter construct. On day 1, 10,000 cells were seeded in a 96 well (white) plate as per the plate map in Growth media without antibiotics. Cells were incubated at 37° C. for 8 hours. After 8 hours, cells were washed with DPBS for complete removal of FBS. DPBS was completely removed and Growth media was replaced with phenol free treatment medium (90 μl) with different FBS concentrations. The cells were then incubated at 37° C. for 24 hours with varying doses (0.01 uM to 10 uM) of compounds. Then a Luciferase assay was performed.
Reagents for performing Luciferase assay were stored at −20° C. To a tube of lyophilized assay substrate was added 1 mL Substrate Solvent and mixed well. The Substrate tube after reconstitution was covered with aluminum foil so as to keep it protected from light. The assay buffer was thawed to room temperature. To 20 mL Assay Buffer was added 200 μL of reconstituted 100× Substrate and mixed well. The reconstituted substrate as well as the assay solution (buffer+substrate) was protected from light throughout the procedure by keeping it covered with aluminum foil. Using a multi-channel pipette, 100 μL Assay Solution (buffer+substrate) was added directly to each sample well in Plate 1, which was incubated for 30 min (plate was covered with aluminum foil). After 30 min incubation, the plate was read for total luminescence. Each well was read for 2 seconds in a plate luminometer. (Microplate reader Envision Microplate reader from Perkin Elmer). Precaution was taken to incubate plate exactly for 30 min prior to reading on the plate reader.
SREBPv1 Reporter cell line: HepG2—#32251. Growth Medium: MEM (Corning 10-010), 10% FBS, 1% GlutaMax (Invitrogen Catalog #35050061), […] (Invitrogen Catalog # A1113803) and 1% Penicillin-Streptomycin (Pen-Strep). Treatment Media: Phenol-free MEM (Invitrogen Catalog #51200-038) and 1% GlutaMax (Invitrogen Catalog #35050061). Luciferase Assay: LightSwitch Luciferase Assay Kit (Catalog #32032). LDH assay: Pierce LDH Cytotoxicity Assay Kit (Catalog # SD249616).

[2] = Stability in mouse liver microsomes; type: in vitro ADME
Description: (§1) Compounds were evaluated for stability in human liver microsomes. A 10 mM stock solution of the compound being evaluated was prepared in DMSO and diluted with water:acetonitrile (1:1) to a concentration of 1 mM. A working concentration of 100 μM was prepared by further dilution with water:acetonitrile (1:1). To make the preincubation mixture, 2.5 μL of the diluted compound was combined with 75 μL of human liver microsomes at 3.33 mg/mL, and 85 μL of 100 mM potassium phosphate buffer, and this mixture was pre-incubated for 10 min at 37° C. To make the 60 minute mixture without cofactor, 32.5 μL of the preincubation mixture was combined with 17.5 μL of 100 mM potassium phosphate buffer and incubated for 60 min at 37° C. To make the 0 min sample with cofactor (NADPH), 16.25 μL of the preincubation mixture was combined with 200 μL of acetonitrile containing internal standard and 8.75 μL of cofactor (NADPH). To make the incubation mixture, 62 μL of cofactor (2.85 mM) was combined with the remaining incubation mixture, and incubated for 60 min at 37° C. To prepare the sample mixture to be evaluated, 25 μL incubation mixture was combined with 200 μL of acetonitrile containing internal standard and vortexed for 5 min at 1200 rpm, then centrifuged for 10 min at 4000 rpm. The supernatant was diluted 2 fold with water and injected on LC-MS/MS. The sample mixture was evaluated by LC-MS/MS using 10 mM ammonium acetate with 0.100 FA as the aqueous mobile phase, and methanol as the organic mobile phase.
Half-Life Mouse Microsomes:
Compounds were evaluated in mouse liver microsomes following a similar procedure as described above for human liver microsomes. A similar procedure could be used to evaluate compounds in rat liver microsomes.

[3] = Stability in human liver microsomes; type: in vitro ADME; conditions: 37° C., NADPH
Description: Half-Life Human Microsomes:
as §1

Row | EC50 [1] [nM] | percent parent remaining after 60 min in liver microsomes [2] | percent of compound remaining after 60 min in human liver microsomes [3] | Structure (SMILES)
1 | > 500 | +++ (>60.1 = +++) | +++ (>60.1 = +++) | Cc1sc(-c2ccc(NS(C)(=O)=O)cc2Cl)cc1-c1ccnc(CC(C)(C)O)c1 [Compound I-9091, N-(3-chloro-4-(4-(2-(2-hydroxy-2-methylpropyl)pyridin-4-yl)-5-methylthiophen-2-yl)phenyl)methanesulfonamide]
2 | 250 to 500 | +++ (>60.1 = +++) | +++ (>60.1 = +++) | CC(C)(C)c1cc(-c2csc(-c3ccc(NC(=O)N4CCC(O)CC4)cc3Cl)c2)ccn1 [Compound I-8736, N-(4-(4-(2-(tert-butyl)pyridin-4-yl)thiophen-2-yl)-3-chlorophenyl)-4-hydroxypiperidine-1-carboxamide]
3 | < 249 | ++ (30.1-60 = ++) | ++ (30.1-60 = ++) | CC(C)NC(=O)Nc1ccc(-c2cc(-c3ccnc(C(C)(C)C)c3)cs2)c(Cl)c1 [Compound I-8731, 1-(4-(4-(2-(tert-butyl)pyridin-4-yl)thiophen-2-yl)-3-chlorophenyl)-3-isopropylurea]
4 | < 249 | +++ (>60.1 = +++) | +++ (>60.1 = +++) | CC(C)OC(=O)Nc1ccc(-c2cc(-c3ccnc(C(C)(C)C)c3)cs2)c(Cl)c1 [Compound I-8741, Isopropyl (4-(4-(2-(tert-butyl)pyridin-4-yl)thiophen-2-yl)-3-chlorophenyl)carbamate]
5 | > 500 | ++ (30.1-60 = ++) | +++ (>60.1 = +++) | O=C(Nc1ccc(-c2cc(-c3ccnc(C4(CO)CC4)c3)cs2)c(Cl)c1)OC1CC1 [Compound I-9082, cyclopropyl (3-chloro-4-(4-(2-(1-(hydroxymethyl)cyclopropyl)pyridin-4-yl)thiophen-2-yl)phenyl)carbamate]
6 | 250 to 500 | +++ (>60.1 = +++) | +++ (>60.1 = +++) | CC(C)OC(=O)Nc1ccc(-c2cc(-c3ccnc(C(C)(C)CO)c3)cs2)c(Cl)c1 [Compound I-8907, Isopropyl (3-chloro-4-(4-(2-(1-hydroxy-2-methylpropan-2-yl)pyridin-4-yl)thiophen-2-yl)phenyl)carbamate]
7 | > 500 | +++ (>60.1 = +++) | +++ (>60.1 = +++) | CC(C)(C#N)c1cc(-c2csc(-c3ccc(NS(C)(=O)=O)cc3Cl)c2)ccn1 [Compound I-9039, N-(3-chloro-4-(4-(2-(2-cyanopropan-2-yl)pyridin-4-yl)thiophen-2-yl)phenyl)methanesulfonamide]
8 | 250 to 500 | +++ (>60.1 = +++) | ++ (30.1-60 = ++) | CC(C)(CO)c1cc(-c2csc(-c3ccc(N4CCOC4=O)cc3Cl)c2)ccn1 [Compound I-8939, 3-(3-chloro-4-(4-(2-(1-hydroxy-2-methylpropan-2-yl)pyridin-4-yl)thiophen-2-yl)phenyl)oxazolidin-2-one]
9 | < 249 | +++ (>60.1 = +++) | +++ (>60.1 = +++) | CC(C)OC(=O)Nc1ccc(-c2cc(-c3ccnc4c3OCCO4)cs2)c(Cl)c1 [Compound I-9062, isopropyl (3-chloro-4-(4-(2,3-dihydro-[1,4]dioxino[2,3-b]pyridin-8-yl)thiophen-2-yl)phenyl)carbamate]
10 | > 500 | +++ (>60.1 = +++) | +++ (>60.1 = +++) | CC(C)OC(=O)Nc1ccc(-c2cc(-c3ccnc(CC(C)(C)O)c3)cs2)c(Cl)c1 [Compound I-9051, isopropyl (3-chloro-4-(4-(2-(2-hydroxy-2-methylpropyl)pyridin-4-yl)thiophen-2-yl)phenyl)carbamate]
11 | < 249 | +++ (>60.1 = +++) | ++ (30.1-60 = ++) | CN(c1ccc(-c2cc(-c3ccnc(C4(CO)CC4)c3)cs2)c(Cl)c1)S(C)(=O)=O [Compound I-9056, N-(3-chloro-4-(4-(2-(1-(hydroxymethyl)cyclopropyl)pyridin-4-yl)thiophen-2-yl)phenyl)-N-methylmethanesulfonamide]
12 | > 500 | +++ (>60.1 = +++) | +++ (>60.1 = +++) | CC(O)(CO)c1cc(-c2csc(-c3ccc(NS(C)(=O)=O)cc3Cl)c2)ccn1 (stereo not drawn) [Compound I-9088, N-(3-chloro-4-(4-(2-(1,2-dihydroxypropan-2-yl)pyridin-4-yl)thiophen-2-yl)phenyl)methanesulfonamide]
13 | < 249 | +++ (>60.1 = +++) | +++ (>60.1 = +++) | CC(C)OC(=O)Nc1ccc(-c2cc(-c3ccnc(OC4CC4)c3)cs2)c(Cl)c1 [Compound I-9060, isopropyl (3-chloro-4-(4-(2-cyclopropoxypyridin-4-yl)thiophen-2-yl)phenyl)carbamate]
14 | > 500 | +++ (>60.1 = +++) | +++ (>60.1 = +++) | CC(C)(C)c1cc(-c2csc(-c3ccc(NC(=O)NCCN4CCCC4)cc3Cl)c2)ccn1 [Compound I-8761, 1-(4-(4-(2-(tert-butyl)pyridin-4-yl)thiophen-2-yl)-3-chlorophenyl)-3-(2-(pyrrolidin-1-yl)ethyl)urea]
15 | > 500 | +++ (>60.1 = +++) | +++ (>60.1 = +++) | CC(C)(O)C(O)c1cc(-c2csc(-c3ccc(NS(C)(=O)=O)cc3Cl)c2)ccn1 (stereo not drawn) [Compound I-9075, N-(3-chloro-4-(4-(2-(1,2-dihydroxy-2-methylpropyl)pyridin-4-yl)thiophen-2-yl)phenyl)methanesulfonamide]
16 | > 500 | +++ (>60.1 = +++) | +++ (>60.1 = +++) | CC(C)(C)c1cc(-c2csc(-c3ccc(S(C)(=O)=O)cc3)c2)ccn1 [Compound I-8723, 2-(tert-butyl)-4-(5-(4-(methylsulfonyl)phenyl)thiophen-3-yl)pyridine]
17 | < 249 | +++ (>60.1 = +++) | +++ (>60.1 = +++) | CC(C)(O)c1cc(-c2csc(-c3ccc(NS(C)(=O)=O)cc3Cl)c2)ccn1 [Compound I-9064, N-(3-chloro-4-(4-(2-(2-hydroxypropan-2-yl)pyridin-4-yl)thiophen-2-yl)phenyl)methanesulfonamide]
18 | 250 to 500 | +++ (>60.1 = +++) | +++ (>60.1 = +++) | CCOC(=O)Nc1ccc(-c2cc(-c3ccnc(C(C)(C)C)c3)cs2)c(Cl)c1 [Compound I-8735, Ethyl (4-(4-(2-(tert-butyl)pyridin-4-yl)thiophen-2-yl)-3-chlorophenyl)carbamate]
